Measurements reported in patent US10045968B2, “Bicyclic compound, production and use thereof” (TOBIRA THERAPEUTICS, INC., priority 2001, dated 2018).

Key:
[1] = biological target: T1, human CCR5 (Homo sapiens, UniProt P51681); experiment: Inhibition of [125I]-RANTES binding to CCR5/CHO cells (CCR5 antagonist activity); settings: test compound 1 μM, 100 pM [125I]-RANTES as ligand, room temperature; for inhibition at 1 µM: 40 min, read-out: Binding Inhibitory Ratio (%)
T1 construct: expressed in transfected cells; host or cells: CHO-K1 cells, stably transfected with pCKR5 (pcDNA3.1 backbone), Geneticin-selected
T1 sequence (P51681 whole entry): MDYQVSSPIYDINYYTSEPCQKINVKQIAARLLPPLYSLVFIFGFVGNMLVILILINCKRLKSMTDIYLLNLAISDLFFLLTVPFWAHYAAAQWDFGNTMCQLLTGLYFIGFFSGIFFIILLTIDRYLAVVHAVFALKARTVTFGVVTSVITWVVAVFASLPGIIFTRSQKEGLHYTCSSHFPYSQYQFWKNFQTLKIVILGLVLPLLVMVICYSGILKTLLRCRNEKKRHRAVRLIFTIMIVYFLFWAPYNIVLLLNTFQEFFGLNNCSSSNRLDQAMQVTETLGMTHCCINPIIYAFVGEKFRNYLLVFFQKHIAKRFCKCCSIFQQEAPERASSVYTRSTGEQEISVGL
Experimental: (1) Cloning of Human CCR5 Chemokine Receptor Cloning of CCR5 gene was conducted from human spleen cDNA by PCR method. Using cDNA (0.5 ng) from spleen (Toyobo, QUICK-Clone cDNA) as a genetic template, primer sets prepared by referring to CCR5 gene nucleotide sequence described by Samson et al. (Biochemistry 35 (11), 3362-3367 (1996), i.e., (2) Preparation of Expression Plasmid of Human CCR5 […] The DNA fragments and an expression plasmid for animal cells pcDN A3.1 (Funakoshi), which was previously digested by XbaI and BamHI, were mixed and ligated by DNA Ligation Kit Ver. 2 (Takara Shuzo). Transformation of E. coli JM109 competent cells (Takara Shuzo) gave plasmid pCKR5. (3) Introduction of the Human CCR5 Expression Plasmid into CHO-K1 Cells and Expression Thereof […] The cells were washed with PBS (Lifetech Oriental), centrifuged (1000 rpm, 5 minutes), and resuspended in PBS. The DNA was introduced into the cells using Gene Pulser (BioRad) according to the following conditions. […] The cells were diluted to a concentration of 10^4 cells/ml, and inoculated in 96 well plate (Becton Dickinson), to obtain Geneticin-resistant cells. The Geneticin-resistant cells ware grown in 96 well plate (Becton Dickinson), and CCR5 expressing cells were selected from the resistant cells. Namely, in an assay buffer, (Ham F12 medium containing 0.5% BSA, and 20 mM HEPES (Wako Pure Chemical Ind., pH 7.2)), containing 200 pM [^125I]-RANTES (Amersham) as a ligand, the cells were subjected to binding reaction at room temperature for 40 minutes. The well plate containing the cells was washed with ice-cooled PBS, added with 1M NaOH in an amount of 50 μl/well and stirred. The cells to which the ligand bound specifically, i.e., CCR5/CHO cells, were selected by measurement of radioactivity by γ-counter. (4) Evaluation of Compounds Based on CCR5 Antagonist Activity The CCR5/CHO cells were inoculated in 96 well microplate at a concentration of 5×10^4 cells/well, and grown for 24 hours. After removal of the medium by aspiration, to each well was added an assay buffer containing a test compound (1 μM), and (^125I)/RANTES (Amersham) used as a ligand at a concentration of 100 pM. The mixture was subjected to the reaction at room temperature for 40 minutes. After removal of the assay buffer by aspiration, each well was washed with cooled PBS twice. Then, 200 μl MicroScint 20 (Packerd) was added to each well, and the radioactivity of each well was measured by TopCount (Packard). According to the method above, inhibitory ratios to CCR5 binding of the test compounds were determined.

## CCCCOCCOc1ccc(-c2ccc3c(c2)C=C(C(=O)Nc2ccc(SCc4nccn4CCCC(=O)OCC)cc2)CCCN3CC(C)C)cc1 [Compound 33, ethyl 4-(2-(((4-(((8-(4-(2-butoxyethoxy)phenyl)-1-isobutyl-1,2,3,4-tetrahydro-1-benzoazocine-5-yl)carbonyl)amino)phenyl)sulfanyl)-methyl)imidazol-1-yl)butanoate]
other
  melting point: 130 to 131 °C

## CCCCOCCOc1ccc(-c2ccc3c(c2)C=C(C(=O)Nc2ccc([S+]([O-])Cc4cncn4CCC)cc2)CCCN3c2ccccc2)cc1 (centres unmarked) [Compound 35, 8-[4-(2-butoxyethoxy)phenyl]-1-phenyl-N-[4-[[[1-propylimidazol-5-yl]methyl]sulfinyl]phenyl]-1,2,3,4-tetrahydro-1-benzoazocine-5-carboxamide]
[1]
  inhibition at 1 µM: 100%

## CCCCOCCOc1ccc(-c2ccc3c(c2)C=C(C(=O)Nc2ccc(SCc4c(C)ncn4CCC)cc2)CCCN3CC(C)C)cc1 [Compound 36, 8-[4-(2-butoxyethoxy)phenyl]-1-isobutyl-N-[4-[[[4-methyl-1-propylimidazol-5-yl]methyl]sulfanyl]phenyl]-1,2,3,4-tetrahydro-1-benzoazocine-5-carboxamide]
[1]
  inhibition at 1 µM: 97%

## CCCCOCCOc1ccc(-c2ccc3c(c2)C=C(C(=O)Nc2ccc([S+]([O-])Cc4c(C)ncn4CCC)cc2)CCCN3CC(C)C)cc1 (centres unmarked) [Compound 37, 8-[4-(2-butoxyethoxy)phenyl]-1-isobutyl-N-[4-[[[4-methyl-1-propylimidazol-5-yl]methyl]sulfinyl]phenyl]-1,2,3,4-tetrahydro-1-benzoazocine-5-carboxamide]
[1]
  inhibition at 1 µM: 100%

## CCCCOCCOc1ccc(-c2ccc3c(c2)C=C(C(=O)Nc2ccc(SCc4cncn4CCC)c(C)c2)CCCN3CC(C)C)cc1 [Compound 38, 8-[4-(2-butoxyethoxy)phenyl]-1-isobutyl-N-[3-methyl-4-[[[1-propylimidazol-5-yl]methyl]sulfanyl]phenyl]-1,2,3,4-tetrahydro-1-benzoazocine-5-carboxamide]
[1]
  inhibition at 1 µM: 94%

## CCCCOCCOc1ccc(-c2ccc3c(c2)C=C(C(=O)Nc2ccc([S+]([O-])Cc4cncn4CCC)c(C)c2)CCCN3CC(C)C)cc1 (centres unmarked) [Compound 39, 8-[4-(2-butoxyethoxy)phenyl]-1-isobutyl-N-[3-methyl-4-[[[1-propylimidazol-5-yl]methyl]sulfinyl]phenyl]-1,2,3,4-tetrahydro-1-benzoazocine-5-carboxamide]
[1]
  inhibition at 1 µM: 99%

## CCCCOCCOc1ccc(-c2ccc3c(c2)C=C(C(=O)Nc2ccc(CN(C)C4CCOCC4)cc2)CCCN3CC(C)C)cc1 [Compound 42, 8-(4-(2-butoxyethoxy)phenyl)-1-isobutyl-N-(4-((methyl(tetrahydro-2H-pyran-4-yl)amino)methyl)phenyl)-1,2,3,4-tetrahydro-1-benzoazocine-5-carboxamide]
[1]
  inhibition at 1 µM: 90%

## CCCOCCOc1ccc(-c2ccc3c(c2)C=C(C(=O)Nc2ccc([S@@+]([O-])Cc4cncn4CCC)cc2)CCCN3CCC)cc1.CS(=O)(=O)O [Compound 45, (S)-(−)-8-[4-(2-propoxyethoxy)phenyl]-1-propyl-N-[4-[[(1-propyl-1H-imidazol-5-yl)methyl]sulfinyl]phenyl]-1,2,3,4-tetrahydro-1-benzoazocine-5-carboxamide/methanesulfonate]
[1]; 40 minutes
  Binding Inhibitory Ratio (%): 96%

## CCCCOCCOc1ccc(-c2ccc3c(c2)C=C(C(=O)Nc2ccc(SCc4nncn4CCC)cc2)CCCN3CC(C)C)cc1 [Compound 46, 8-[4-(2-butoxyethoxy)phenyl]-1-isobutyl-N-[4-[[(4-propyl-4H-1,2,4-triazol-3-yl)methyl]thio]phenyl]-1,2,3,4-tetrahydro-1-benzazocine-5-carboxamide]
other
  melting point: 122 to 126 °C
[1]
  inhibition at 1 µM: 99%

## CCCCOCCOc1ccc(-c2ccc3c(c2)C=C(C(=O)Nc2ccc([S+]([O-])Cc4nncn4CCC)cc2)CCCN3CC(C)C)cc1 (centres unmarked) [Compound 47, 8-[4-(2-butoxyethoxy)phenyl]-1-isobutyl-N-[4-[[(4-propyl-4H-1,2,4-triazol-3-yl)methyl]sulfinyl]phenyl]-1,2,3,4-tetrahydro-1-benzazocin-5-carboxamide]
other
  melting point: 105 to 110 °C

## CCCCOCCOc1ccc(-c2ccc3c(c2)C=C(C(=O)Nc2ccc([S+]([O-])Cc4nncn4CCC)cc2)CCCN3CCC)cc1 (centres unmarked) [Compound 50, 8-[4-(2-butoxyethoxy)phenyl]-1-propyl-N-[4-[[(4-propyl-4H-1,2,4-triazol-3-yl)methyl]sulfinyl]phenyl]-1,2,3,4-tetrahydro-1-benzazocine-5-carboxamide]
[1]
  inhibition at 1 µM: 93%

## CCCCOCCOc1ccc(-c2ccc3c(c2)C=C(C(=O)Nc2ccc([S+]([O-])Cc4nncn4CCC)cc2)CCCN3CCC)cc1 (centres unmarked) [Compound 51, 8-[4-(2-butoxyethoxy)phenyl]-1-propyl-N-[4-[[(4-propyl-4H-1,2,4-triazol-3-yl)methyl]sulfinyl]phenyl]-1,2,3,4-tetrahydro-1-benzazocine-5-carboxamide]
other
  melting point: 167 to 170 °C

## CCCCOCCOc1ccc(-c2ccc3c(c2)C=C(C(=O)Nc2ccc([S+]([O-])Cc4nccn4CCCC(=O)OCC)cc2)CCCN3CC(C)C)cc1 (centres unmarked) [Compound 54, ethyl 4-(2-(((4-(((8-(4-(2-butoxyethoxy)phenyl)-1-isobutyl-1,2,3,4-tetrahydro-1-benzazocine-5-yl)carbonyl)amino)phenyl)sulfinyl)methyl)imidazol-1-yl)butanoate]
other
  melting point: 133.5 to 134.5 °C
